The supplement of paper PMC10307832

What was measured:
Assay in all cases: relative viability (nuclei count vs DMSO), 5 days (fraction); higher = more cells survive
[1] = system: A-427
Summary of the method: (§1)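 Cells from lung cancer lines were seeded into 1536-well plates and, one day later, dosed by pin tool. Treatments were either a single drug or a fixed dose of an anchor drug with five library-drug doses (not always all listed) in √10 steps. After 5 days, nuclei were stained in a one-step fixation (final 0.05% Triton X-100, 1% formaldehyde, 1 ug/ml Hoechst) and counted on 4× images, and relative viability is the treated-to-vehicle nuclei ratio, as the median of duplicate plates.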

[2] = system: BEN
Summary of the method: as §1

[3] = system: ChaGo-K-1
Summary of the method: as §1

[4] = system: EKVX
Summary of the method: as §1

[5] = system: LK-2
Summary of the method: as §1

[6] = system: NCI-H1755
Summary of the method: as §1

[7] = system: NCI-H2085
Summary of the method: as §1

[8] = system: NCI-H2347
Summary of the method: as §1

[9] = system: NCI-H3122
Summary of the method: as §1

[10] = system: NCI-H322M
Summary of the method: as §1

[11] = system: NCI-H358
Summary of the method: as §1

[12] = system: NCI-H460
Summary of the method: as §1

[13] = system: NCI-H596
Summary of the method: as §1

[14] = system: NCI-H650
Summary of the method: as §1

[15] = system: NCI-H727
Summary of the method: as §1

[16] = system: NCI-H838
Summary of the method: as §1

[17] = system: SW 900
Summary of the method: as §1

[18] = system: NCI-H1650
Summary of the method: as §1

[19] = system: NCI-H520
Summary of the method: as §1

[20] = system: SW 1573
Summary of the method: as §1

COCC1(CO)C(=O)C2CCN1CC2 (configuration not stated) [PRIMA-1MET] + NC(=O)Nc1cc(-c2cccc(F)c2)sc1C(=O)N[C@H]1CCCNC1 [AZD7762] (partner 0.2 µM)
relative viability ([1]; first compound 0.2 µM): 0.741 | relative viability ([1]; first compound 0.6325 µM): 0.795 | relative viability ([1]; first compound 2 µM): 0.756 | relative viability ([1]; first compound 6.325 µM): 0.711 | relative viability ([1]; first compound 20 µM): 0.557 | relative viability ([2]; first compound 0.2 µM): 0.733 | relative viability ([2]; first compound 0.6325 µM): 0.603 | relative viability ([2]; first compound 6.325 µM): 0.653 | relative viability ([2]; first compound 20 µM): 0.652 | relative viability ([3]; first compound 0.2 µM): 0.765 | relative viability ([3]; first compound 0.6325 µM): 0.794 | relative viability ([3]; first compound 2 µM): 0.819 | relative viability ([3]; first compound 6.325 µM): 0.85 | relative viability ([3]; first compound 20 µM): 0.779 | relative viability ([4]; first compound 0.2 µM): 0.72 | relative viability ([4]; first compound 2 µM): 0.524 | relative viability ([4]; first compound 6.325 µM): 0.748 | relative viability ([4]; first compound 20 µM): 0.378 | relative viability ([5]; first compound 0.2 µM): 0.469 | relative viability ([5]; first compound 0.6325 µM): 0.405 | relative viability ([5]; first compound 2 µM): 0.182 | relative viability ([5]; first compound 6.325 µM): 0.124 | relative viability ([5]; first compound 20 µM): 0.0604 | relative viability ([6]; first compound 0.2 µM): 0.414 | relative viability ([6]; first compound 0.6325 µM): 0.4 | relative viability ([6]; first compound 2 µM): 0.392 | relative viability ([6]; first compound 6.325 µM): 0.557 | relative viability ([6]; first compound 20 µM): 0.446 | relative viability ([7]; first compound 0.2 µM): 1.09 | relative viability ([7]; first compound 0.6325 µM): 1.1 | relative viability ([7]; first compound 2 µM): 0.588 | relative viability ([7]; first compound 6.325 µM): 0.942 | relative viability ([7]; first compound 20 µM): 0.176 | relative viability ([8]; first compound 0.2 µM): 0.709 | relative viability ([8]; first compound 0.6325 µM): 0.668 | relative viability ([8]; first compound 2 µM): 0.569 | relative viability ([8]; first compound 6.325 µM): 0.761 | relative viability ([8]; first compound 20 µM): 0.525 | relative viability ([9]; first compound 0.2 µM): 0.854 | relative viability ([9]; first compound 0.6325 µM): 0.911 | relative viability ([9]; first compound 2 µM): 0.985 | relative viability ([9]; first compound 6.325 µM): 0.95 | relative viability ([9]; first compound 20 µM): 0.879 | relative viability ([10]; first compound 0.2 µM): 0.657 | relative viability ([10]; first compound 0.6325 µM): 0.558 | relative viability ([10]; first compound 6.325 µM): 0.59 | relative viability ([10]; first compound 20 µM): 0.406 | relative viability ([11]; first compound 0.2 µM): 0.592 | relative viability ([11]; first compound 2 µM): 0.489 | relative viability ([11]; first compound 6.325 µM): 0.484 | relative viability ([11]; first compound 20 µM): 0.0265 | relative viability ([12]; first compound 0.2 µM): 0.705 | relative viability ([12]; first compound 0.6325 µM): 0.382 | relative viability ([12]; first compound 2 µM): 0.659 | relative viability ([12]; first compound 6.325 µM): 0.703 | relative viability ([12]; first compound 20 µM): 0.251 | relative viability ([13]; first compound 0.2 µM): 1.24 | relative viability ([13]; first compound 0.6325 µM): 1 | relative viability ([13]; first compound 2 µM): 0.884 | relative viability ([13]; first compound 6.325 µM): 1.22 | relative viability ([13]; first compound 20 µM): 0.232 | relative viability ([14]; first compound 0.2 µM): 0.961 | relative viability ([14]; first compound 0.6325 µM): 0.828 | relative viability ([14]; first compound 2 µM): 0.983 | relative viability ([14]; first compound 6.325 µM): 0.995 | relative viability ([14]; first compound 20 µM): 0.148 | relative viability ([15]; first compound 0.2 µM): 0.505 | relative viability ([15]; first compound 0.6325 µM): 0.62 | relative viability ([15]; first compound 6.325 µM): 0.421 | relative viability ([15]; first compound 20 µM): 0.349 | relative viability ([16]; first compound 0.2 µM): 0.989 | relative viability ([16]; first compound 0.6325 µM): 0.88 | relative viability ([16]; first compound 2 µM): 0.9 | relative viability ([16]; first compound 6.325 µM): 1.05 | relative viability ([16]; first compound 20 µM): 0.849 | relative viability ([17]; first compound 0.2 µM): 0.553 | relative viability ([17]; first compound 0.6325 µM): 0.632 | relative viability ([17]; first compound 6.325 µM): 0.573 | relative viability ([17]; first compound 20 µM): 0.101

COCC1(CO)C(=O)C2CCN1CC2 (configuration not stated) [PRIMA-1MET] + Nc1ncn([C@H]2C[C@H](O)[C@@H](CO)O2)c(=O)n1 [Decitabine] (partner 2 µM)
relative viability ([1]; first compound 0.2 µM): 0.648 | relative viability ([1]; first compound 0.6325 µM): 0.532 | relative viability ([1]; first compound 2 µM): 0.621 | relative viability ([1]; first compound 6.325 µM): 0.568 | relative viability ([1]; first compound 20 µM): 0.501 | relative viability ([2]; first compound 0.2 µM): 0.747 | relative viability ([2]; first compound 0.6325 µM): 0.473 | relative viability ([2]; first compound 6.325 µM): 0.652 | relative viability ([2]; first compound 20 µM): 0.632 | relative viability ([3]; first compound 0.2 µM): 0.514 | relative viability ([3]; first compound 0.6325 µM): 0.362 | relative viability ([3]; first compound 2 µM): 0.557 | relative viability ([3]; first compound 6.325 µM): 0.518 | relative viability ([3]; first compound 20 µM): 0.518 | relative viability ([4]; first compound 0.2 µM): 0.407 | relative viability ([4]; first compound 2 µM): 0.277 | relative viability ([4]; first compound 6.325 µM): 0.336 | relative viability ([4]; first compound 20 µM): 0.199 | relative viability ([5]; first compound 0.2 µM): 0.262 | relative viability ([5]; first compound 0.6325 µM): 0.158 | relative viability ([5]; first compound 2 µM): 0.247 | relative viability ([5]; first compound 6.325 µM): 0.182 | relative viability ([5]; first compound 20 µM): 0.0846 | relative viability ([18]; first compound 0.2 µM): 0.485 | relative viability ([18]; first compound 0.6325 µM): 0.314 | relative viability ([18]; first compound 2 µM): 0.314 | relative viability ([18]; first compound 6.325 µM): 0.382 | relative viability ([18]; first compound 20 µM): 0.279 | relative viability ([6]; first compound 0.2 µM): 0.785 | relative viability ([6]; first compound 0.6325 µM): 0.583 | relative viability ([6]; first compound 2 µM): 0.72 | relative viability ([6]; first compound 6.325 µM): 0.723 | relative viability ([6]; first compound 20 µM): 0.772 | relative viability ([7]; first compound 0.2 µM): 0.59 | relative viability ([7]; first compound 0.6325 µM): 0.459 | relative viability ([7]; first compound 2 µM): 0.526 | relative viability ([7]; first compound 6.325 µM): 0.526 | relative viability ([7]; first compound 20 µM): 0.198 | relative viability ([8]; first compound 0.2 µM): 0.705 | relative viability ([8]; first compound 0.6325 µM): 0.549 | relative viability ([8]; first compound 2 µM): 0.605 | relative viability ([8]; first compound 6.325 µM): 0.668 | relative viability ([8]; first compound 20 µM): 0.63 | relative viability ([9]; first compound 0.2 µM): 0.336 | relative viability ([9]; first compound 0.6325 µM): 0.288 | relative viability ([9]; first compound 2 µM): 0.425 | relative viability ([9]; first compound 6.325 µM): 0.367 | relative viability ([9]; first compound 20 µM): 0.425 | relative viability ([10]; first compound 0.2 µM): 0.725 | relative viability ([10]; first compound 0.6325 µM): 0.696 | relative viability ([10]; first compound 6.325 µM): 0.714 | relative viability ([10]; first compound 20 µM): 0.6 | relative viability ([11]; first compound 0.2 µM): 0.214 | relative viability ([11]; first compound 0.6325 µM): 0.154 | relative viability ([11]; first compound 2 µM): 0.215 | relative viability ([11]; first compound 6.325 µM): 0.207 | relative viability ([11]; first compound 20 µM): 0.183 | relative viability ([12]; first compound 0.2 µM): 0.595 | relative viability ([12]; first compound 0.6325 µM): 0.136 | relative viability ([12]; first compound 2 µM): 0.455 | relative viability ([12]; first compound 6.325 µM): 0.513 | relative viability ([12]; first compound 20 µM): 0.0203 | relative viability ([19]; first compound 0.2 µM): 0.506 | relative viability ([19]; first compound 2 µM): 0.413 | relative viability ([19]; first compound 6.325 µM): 0.521 | relative viability ([19]; first compound 20 µM): 0.219 | relative viability ([13]; first compound 0.2 µM): 1.09 | relative viability ([13]; first compound 0.6325 µM): 0.855 | relative viability ([13]; first compound 2 µM): 0.989 | relative viability ([13]; first compound 6.325 µM): 1.07 | relative viability ([13]; first compound 20 µM): 0.655 | relative viability ([14]; first compound 0.2 µM): 0.315 | relative viability ([14]; first compound 0.6325 µM): 0.255 | relative viability ([14]; first compound 2 µM): 0.315 | relative viability ([14]; first compound 6.325 µM): 0.332 | relative viability ([14]; first compound 20 µM): 0.199 | relative viability ([15]; first compound 0.2 µM): 0.594 | relative viability ([15]; first compound 0.6325 µM): 0.385 | relative viability ([15]; first compound 6.325 µM): 0.849 | relative viability ([15]; first compound 20 µM): 0.685 | relative viability ([16]; first compound 0.2 µM): 0.435 | relative viability ([16]; first compound 0.6325 µM): 0.312 | relative viability ([16]; first compound 2 µM): 0.474 | relative viability ([16]; first compound 6.325 µM): 0.472 | relative viability ([16]; first compound 20 µM): 0.453 | relative viability ([20]; first compound 0.2 µM): 0.58 | relative viability ([20]; first compound 2 µM): 0.285 | relative viability ([20]; first compound 6.325 µM): 0.0265 | relative viability ([20]; first compound 20 µM): 0.0223 | relative viability ([17]; first compound 0.2 µM): 0.402 | relative viability ([17]; first compound 0.6325 µM): 0.386 | relative viability ([17]; first compound 6.325 µM): 0.425 | relative viability ([17]; first compound 20 µM): 0.0976
